pIC50: −log10 of the molar value. Where a SMILES comes first, the peptide text is derived from it. The star is where a group is joined. AMC = Cc1cc(=O)oc2cc(N*)ccc12; Cbz = O=C(OCc1ccccc1)*
Molecular target: human plasma kallikrein (Homo sapiens, UniProt P03952)
Assay: Kallikrein inhibition FLINT assay with quenched AMC peptide substrate Z-Gly-Pro-Arg-AMC (end point EP or kinetic KIN reads)
Type: biochemical
Conditions: for pIC50: kinetic reads at 5 min intervals over 30 min, read-out: Kallikrein (KIN) IC50
Experimental: A fluorescence intensity (FLINT) based assay was used to monitor inhibition of human plasma kallikrein.
The Kallikrein FLINT assay was used with the following Z-Gly-Pro-Arg-AMC assay buffer: 50 mM Tris, pH 7.5, 100 mM NaCl, 5 mM CaCl2, 0.1 mg/mL BSA, 0.03% CHAPS. Assay buffer was prepared by mixing all ingredients fresh. 2× Z-Gly-Pro-Arg-AMC peptide substrate was prepared by diluting 10 mM stock into 1× assay buffer for a 100 μM working concentration (50 μM final concentration).
Test compound(s) were run in an 11-point, 3-fold serial dilution with a final top compound concentration of 1 μM. Final DMSO in assay was 2%. Plasma kallikrein was pre-incubated for 30-minute with compound and then 50 μM substrate was added to initiate the reaction. The assay was run with either end point (EP) reads at 30 min or kinetic (KIN) reads at 5 min intervals over 30 minutes.
Percent inhibition (IC50) curves were generated per compound tested, and data was analyzed using a 4-parameter logistic fit using GeneData Screener. The relative fluorescence unit (RFU) values were normalized to percent inhibition using the following equation: % inhibition=((HC−LC)−(compound−LC)/(HC−LC))*100
An 11-point dose response curve for the test compound(s) was generated using GENDATA to determine IC50 value based on the following equation: Y=Bottom+(Top−Bottom)/(1+10^((log IC50−X)*HillSlope))
Results listed in columns with […] designation were measured using endpoint reads where a single fluorescence reading was measured for each well at a 30 min timepoint.

[1] = peptide substrate of kallikrein, titration data fit to Michaelis-Menten equation

Sequence of human plasma kallikrein (P03952 391-638 limits assumed): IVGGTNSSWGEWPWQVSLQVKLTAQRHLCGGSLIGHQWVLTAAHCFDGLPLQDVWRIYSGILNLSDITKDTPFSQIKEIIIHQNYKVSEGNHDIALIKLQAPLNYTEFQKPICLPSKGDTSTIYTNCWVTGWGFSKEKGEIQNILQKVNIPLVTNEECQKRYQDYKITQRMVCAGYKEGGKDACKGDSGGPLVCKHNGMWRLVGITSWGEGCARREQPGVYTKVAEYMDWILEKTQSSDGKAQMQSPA
Sequence of human plasma kallikrein (P03952 20-390 partner limits assumed): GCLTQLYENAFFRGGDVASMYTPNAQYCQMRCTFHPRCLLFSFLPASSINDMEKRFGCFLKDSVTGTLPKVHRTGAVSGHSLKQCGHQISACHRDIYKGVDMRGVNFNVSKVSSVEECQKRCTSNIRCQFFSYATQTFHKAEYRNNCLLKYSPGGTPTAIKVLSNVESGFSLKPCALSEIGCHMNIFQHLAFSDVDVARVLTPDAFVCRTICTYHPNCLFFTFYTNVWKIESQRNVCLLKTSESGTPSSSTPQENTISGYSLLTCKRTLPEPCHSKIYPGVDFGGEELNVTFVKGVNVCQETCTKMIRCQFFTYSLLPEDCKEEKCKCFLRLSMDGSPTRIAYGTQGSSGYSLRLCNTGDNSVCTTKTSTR

SMILES | pIC50 | further results
COc1cnc(F)c(-c2cnn(C(CC3CC3)c3ccc(-c4c(-n5cnnn5)ccc(Cl)c4F)c[n+]3[O-])c2)c1 (centres unmarked) [Example P75] | 6.60 | –
Cc1cc(=O)oc2cc(NC(=O)[C@H](CCCNC(=N)N)NC(=O)[C@@H]3CCCN3C(=O)CNC(=O)OCc3ccccc3)ccc12 [Z-Gly-Pro-Arg-AMC, reference compound] (Cbz-Gly-Pro-Arg-{AMC}) | – | Km [1]: 40 µM; kcat [1]: 0.76 s⁻¹
O=C(C1CC1CC(c1ccc(-c2c(-n3cnnn3)ccc(Cl)c2F)c[n+]1[O-])n1cc(-c2ccccc2)cn1)N1CCC(c2ccccc2)C1 (centres unmarked) [Example P196] | 6.00 | –
O=C1c2ccccc2CN1CC(c1ccc(-c2cc(Cl)ccc2-n2cnnn2)c[n+]1[O-])n1cc(-c2ccncc2)cn1 (centres unmarked) [Example P293] | 7.17 | –
Cn1ncc(-c2cnn(C(CC3CC3)c3cc(Cl)c(-c4c(-n5cnnn5)ccc(Cl)c4F)c[n+]3[O-])c2)cc1=O (single isomer, unassigned) [Example P190] | 7.31 | –
CN(CC(c1ccc(-c2c(-n3cnnn3)ccc(Cl)c2F)c[n+]1[O-])n1cc(-c2cc[n+]([O-])cc2)cn1)C(=O)Cc1ccccc1 (centres unmarked) [Example P345] | 6.82 | –
[O-][n+]1cc(-c2c(-n3cc(Cl)nn3)ccc(Cl)c2F)ccc1[C@@H](Cn1cccn1)n1cc(-c2cnnn2C(F)F)cn1 [Example P685] | 6.82 | –
[O-][n+]1cc(-c2c(-n3cnnn3)ccc(Cl)c2F)ccc1[C@@H](Cc1ccc(C(F)(F)F)nc1)n1cc(-c2ccnn2C(F)F)cn1 [Example P777] | 8.19 | –
COCc1ccnn1CC(c1ccc(-c2c(-n3cnnn3)ccc(Cl)c2F)c[n+]1[O-])n1cc(-c2ccc(N)nc2F)cn1 (centres unmarked) [Example P489] | 7.24 | –
Cc1ncn(-c2cnn(C(CCOC(F)F)c3ccc(-c4c(-n5cc(OC(F)F)nn5)ccc(Cl)c4F)c[n+]3[O-])c2)n1 (single isomer, unassigned) [Example P825] | 6.23 | –
CC(C)c1cc(-c2cnn(C(Cn3cc(F)cn3)c3ccc(-c4c(-n5cnnn5)ccc(Cl)c4F)c[n+]3[O-])c2)ccn1 (centres unmarked) [Example P393] | 7.44 | –
[O-][n+]1cccc(-c2cnn(C(Cc3ccc(Cl)cc3)c3ccc(-c4cc(Cl)ccc4-n4cnnn4)c[n+]3[O-])c2)c1 (centres unmarked) [Example P151] | 7.10 | –
Cn1ncc(-c2cnn(C(CC3CC3)c3cc(Cl)c(-c4c(-n5cnnn5)ccc(Cl)c4F)c[n+]3[O-])c2)cc1=O (centres unmarked) [Example P139] | 7.24 | –
[O-][n+]1cc(-c2c(-n3cnnn3)ccc(Cl)c2F)ccc1C(Cc1ccc(F)cc1)n1cc(-c2c(Cl)nnn2C(F)F)cn1 (single isomer, unassigned) [Example P589] | 6.28 | –
Nc1ccc(-c2cnn(C(Cn3cc(F)cn3)c3ccc(-c4c(C(F)F)ccc(Cl)c4F)c[n+]3[O-])c2)c(F)n1 (single isomer, unassigned) [Example Q25] | 7.75 | –
CC(C)c1cc(-c2cnn(C(Cn3cc(F)cn3)c3ccc(-c4c(-n5cnnn5)ccc(Cl)c4F)c[n+]3[O-])c2)cc[n+]1[O-] (single isomer, unassigned) [Example P413] | 7.71 | –
[O-][n+]1cc(-c2c(-n3cnnn3)ccc(Cl)c2F)ccc1C(Cn1cc(F)cn1)n1cc(-c2ccnc(C3CC3)c2)cn1 (centres unmarked) [Example P500] | 8.43 | –
CN(C)C(=O)CC(c1ccc(-c2c(-n3cc(C(F)(F)F)nn3)ccc(Cl)c2F)c[n+]1[O-])n1cc(-c2ccc(C(N)=O)c(F)c2)cn1 (centres unmarked) [Example P884] | 7.21 | –
COCc1ccn(CC(c2ccc(-c3c(-n4cnnn4)ccc(Cl)c3F)c[n+]2[O-])n2cc(-c3ccc(N)nc3F)cn2)n1 (centres unmarked) [Example P492] | 8.55 | –
[O-][n+]1cc(-c2c(-n3cnnn3)ccc(Cl)c2F)ccc1C(Cc1nn(CC(F)(F)F)cc1F)n1cc(-c2ccnc(C(F)(F)F)c2)cn1 (centres unmarked) [Example P741] | 7.66 | –
COc1cc(C(CC2CC2)n2cc(-c3ncnn3C)cn2)[n+]([O-])cc1-c1cc(Cl)ccc1C#N (single isomer, unassigned) [Example Q61] | 6.55 | –
O=C(O)c1ccc(-c2cnn(C(c3ccc(-c4cc(Cl)ccc4-n4cnnn4)c[n+]3[O-])C(O)c3ccccc3)c2)cc1 (single isomer, unassigned) [Example P119] | 6.81 | –
Cn1nnc(F)c1-c1cnn(C(CC2CC2)c2ccc(-c3c(-n4cnnn4)ccc(Cl)c3F)c[n+]2[O-])c1 (centres unmarked) [Example P744] | 7.31 | –
CC(C)n1ccc(C[C@H](c2ccc(-c3c(-n4cnnn4)ccc(Cl)c3F)c[n+]2[O-])n2cc(-c3ccnc(C(F)(F)F)c3)cn2)n1 [Example P652] | 8.66 | –
CC1CC1C[C@H](c1ccc(-c2c(-n3cnnn3)ccc(Cl)c2F)c[n+]1[O-])n1cc(-c2c(F)nnn2C)cn1 (some centres unmarked) [Example P768] | 7.15 | –

SMILES | pIC50 | further results
[O-][n+]1cc(-c2c(-n3cnnn3)ccc(Cl)c2F)ccc1[C@@H](Cc1nccs1)n1cc(-c2ccnn2C(F)F)cn1 [Example P718] | 7.95 | –
CC(C)(C)c1cc(-c2cnn(C(Cn3cc(F)cn3)c3ccc(-c4c(-n5cnnn5)ccc(Cl)c4F)c[n+]3[O-])c2)cc[n+]1[O-] (centres unmarked) [Example P436] | 7.02 | –
COCCOC(=O)Nc1ccc(-c2cnn(C(CC3CC3)c3ccc(-c4c(-n5cnnn5)ccc(Cl)c4F)c[n+]3[O-])c2)cc1 (centres unmarked) [Example P141] | 7.14 | –
Cc1nc(C(F)(F)F)sc1-c1cnn(C(CC2CC2)c2ccc(-c3c(-n4cnnn4)ccc(Cl)c3F)c[n+]2[O-])c1 (single isomer, unassigned) [Example P961] | 7.07 | –
O=C(c1ccn(CC(c2ccc(-c3c(-n4cnnn4)ccc(Cl)c3F)c[n+]2[O-])n2cc(-c3cc[n+]([O-])cc3)cn2)n1)N1CCCCC1 (centres unmarked) [Example P447] | 8.37 | –
Cc1cc(C(N)=O)sc1-c1cnn(C(CC2CC2)c2ccc(-c3c(-n4cc(C(F)(F)F)nn4)ccc(Cl)c3F)c[n+]2[O-])c1 (single isomer, unassigned) [Example P957] | 6.65 | –
[O-][n+]1cc(-c2c(-n3cc(Cl)nn3)ccc(Cl)c2F)ccc1[C@@H](Cn1cc(F)cn1)n1cc(-c2ccnn2C(F)F)cn1 [Example P643] | 7.30 | –
[O-][n+]1cc(-c2c(-n3cc(Cl)nn3)ccc(Cl)c2F)ccc1C(Cn1cc(F)cn1)n1cc(-c2ccnc(C(F)(F)F)c2)cn1 (centres unmarked) [Example P479] | 6.73 | –
COC(=O)Nc1ccc(-c2cnn(C(Cc3ccn(C)n3)c3ccc(-c4c(-n5cnnn5)ccc(Cl)c4F)c[n+]3[O-])c2)cc1 (single isomer, unassigned) [Example P329] | 7.30 | –
NC(=O)c1ccc(-c2cnn([C@H](CCOC(F)F)c3ccc(-c4c(-n5cc(C(F)(F)F)nn5)ccc(Cl)c4F)c[n+]3[O-])c2)cc1F [Example P860] | 7.99 | –
N#Cc1cc(-c2cnn(C(CN3CCCC3=O)c3ccc(-c4c(-n5cnnn5)ccc(Cl)c4F)c[n+]3[O-])c2)cc[n+]1[O-] (centres unmarked) [Example P466] | 6.64 | –
NC(=O)c1ccc(-c2cnn(C(Cc3ccn(C(F)F)n3)c3ccc(-c4c(-n5cc(C(F)(F)F)nn5)ccc(Cl)c4F)c[n+]3[O-])c2)cc1F (single isomer, unassigned) [Example P891] | 6.27 | –
NC(=O)c1ccc(-c2cnn(C(Cc3ccn(C(F)F)n3)c3ccc(-c4c(-n5cc(Cl)nn5)ccc(Cl)c4F)c[n+]3[O-])c2)cc1 (single isomer, unassigned) [Example P911] | 9.70 | –
O=C(O)c1ccc(-c2cnn(C(CC3CC3C(=O)N3CCCC3)c3ccc(-c4cc(Cl)ccc4-n4cnnn4)c[n+]3[O-])c2)cc1 (centres unmarked) [Example P106] | 6.20 | –
Cn1nccc1-c1cnn(C(CCOC(F)F)c2ccc(-c3c(-n4cnnn4)ccc(Cl)c3F)c[n+]2[O-])c1 (centres unmarked) [Example P487] | 8.05 | –
[2H]C([2H])([2H])Nc1ccc(-c2cnn(C(CCOC([2H])([2H])[2H])c3ccc(-c4c(-n5cnnn5)ccc(Cl)c4F)c[n+]3[O-])c2)cc1 (centres unmarked) [Example P278] | 6.96 | –
O=C(O)c1ccc(-c2cnn(C(Cc3ncco3)c3ccc(-c4c(-n5cc(C(F)(F)F)nn5)ccc(Cl)c4F)c[n+]3[O-])c2)cc1F (centres unmarked) [Example P912] | 7.93 | –
O=C(O)c1ccc(-c2cnn(C(CC3CC3c3ccc(-c4ccccc4)cc3)c3ccc(-c4cc(Cl)ccc4-n4cnnn4)c[n+]3[O-])c2)cc1 (centres unmarked) [Example P61] | 7.28 | –
COC(=O)Nc1ccc(-c2cnn(C(Cn3cc(F)cn3)c3ccc(-c4c(-n5cnnn5)ccc(Cl)c4F)c[n+]3[O-])c2)cc1 (centres unmarked) [Example P277] | 7.88 | –
[O-][n+]1cc(-c2c(-n3cnnn3)ccc(Cl)c2F)ccc1[C@@H](Cc1ccn(C(F)F)n1)n1cc(-c2ccnn2C(F)F)cn1 [Example P734] | 8.19 | –
Cn1ccc(CC(c2ccc(-c3c(-n4cnnn4)ccc(Cl)c3F)c[n+]2[O-])n2cc(-c3ccnc(C(F)(F)F)c3)cn2)n1 (single isomer, unassigned) [Example P378] | 6.85 | –
CN(C)C(=O)N(C)CC(c1ccc(-c2c(-n3cnnn3)ccc(Cl)c2F)c[n+]1[O-])n1cc(-c2ccnc(C(F)(F)F)c2)cn1 (centres unmarked) [Example P437] | 6.95 | –
COC(=O)Nc1ccc(-c2cnn(C(Cc3ccccc3)c3ccc(-c4c(-n5cnnn5)ccc(Cl)c4F)c[n+]3[O-])c2)cc1 (centres unmarked) [Example P71] | 8.12 | –
NC(=O)c1ccc(-c2cnn(C(Cc3ccn(C(F)F)n3)c3ccc(-c4c(-n5cc(C(F)(F)F)nn5)ccc(Cl)c4F)c[n+]3[O-])c2)cc1F (centres unmarked) [Example P952] | 8.64 | –

From US11814364B2, “Pyridine N-oxide derivatives useful as factor XIa inhibitors” (Janssen Pharmaceutica NV, priority 2021, dated 2023)
